Test results from paper PMC11676982, “Heterotropic Activation of Cytochrome P450 3A4 by Perillyl Alcohol” (Pharmaceutics, 2024).
Read-outs that look alike come from different tables or passages of the source.

What was measured:
[1] = target: T1, CYP2C9 (Homo sapiens, UniProt P11712); test: Effect of POH on fimasartan (FMS) metabolism in pooled HLMs: CYP2C9-mediated hydroxy butyl FMS formation; type: in vitro ADME; conditions: FMS 30 μM, 95% CI in parentheses; for IC50: pooled HLMs, 10 min
Protocol: (§1) The substrates were applied at a concentration that approximated their Km values. The reactions were preincubated for 5 min before being initiated with the addition of 1 mM NADPH. After 10 min incubation, reactions containing atorvastatin, buspirone, FMS, or nifedipine were terminated by the addition of 200 μL of ice-cold acetonitrile with 100 nM carbamazepine as an internal standard. For terminating reactions with donepezil or tadalafil, 200 μL of ice-cold methanol containing 0.5% (v/v) formic acid and 1 μM carbamazepine as internal standard was added to samples. […] The experiment was performed using three separate samples.

[2] = target: T2, CYP2B6 (Homo sapiens, UniProt P20813); test: biochemical
T2 sequence (P20813 1-491): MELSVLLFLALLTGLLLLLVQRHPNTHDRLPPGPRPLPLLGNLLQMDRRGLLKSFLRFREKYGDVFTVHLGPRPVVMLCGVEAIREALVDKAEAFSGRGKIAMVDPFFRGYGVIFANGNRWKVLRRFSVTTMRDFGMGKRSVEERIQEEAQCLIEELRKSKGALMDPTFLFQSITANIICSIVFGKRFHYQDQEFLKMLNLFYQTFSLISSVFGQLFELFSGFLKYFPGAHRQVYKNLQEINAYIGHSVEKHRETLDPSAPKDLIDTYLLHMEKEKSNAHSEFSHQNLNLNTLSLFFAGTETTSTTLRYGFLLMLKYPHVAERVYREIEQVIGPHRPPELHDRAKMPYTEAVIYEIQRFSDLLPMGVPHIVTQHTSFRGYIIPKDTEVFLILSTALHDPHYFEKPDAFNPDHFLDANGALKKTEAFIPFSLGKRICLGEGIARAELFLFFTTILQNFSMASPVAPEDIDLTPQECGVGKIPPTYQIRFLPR
Protocol: (§2) A 5 min pre-incubation was performed prior to initiating reactions with the addition of 1 mM NADPH. After incubation at 37 °C for 10 min, 200 μL of ice-cold acetonitrile containing 100 nM carbamazepine as an internal standard was added to terminate the reaction. The samples were agitated and centrifuged at 4 °C for 20 min at 3000× g. The supernatants were transferred to a 96-well plate for LC-MS/MS analysis. The experiment was performed using three separate samples.
(§3) Data acquired from the evaluation of enzyme inhibition using various concentrations of substrates and test compounds were fit to different models (competitive, noncompetitive, uncompetitive, or mixed), and inhibition constant (Ki) and goodness of fit values were obtained using GraphPad Prism. The appropriate type of inhibition was selected based on statistical goodness of fit tests including Akaike’s information criterion (AICc) with correction for small sample size and the standard deviation of the residuals (Sy.x).

[3] = target: T2, CYP2B6; test: Determination of CYP inhibition mode and Ki in pooled HLMs, CYP2B6-mediated bupropion hydroxylation
Protocol: as §2, §3

[4] = tested on: CYP3A4 and CYP2C9; test: Effect of POH on fimasartan (FMS) metabolism in pooled HLMs: FMS S-oxide formation; type: in vitro ADME, human; conditions: FMS 30 μM, (−)-POH 3.2–100 μM
Protocol: as §1

[5] = target: T2, CYP2B6; test: Direct CYP inhibition assay in pooled HLMs, CYP2B6 (bupropion)
[6] = target: CYP2E1 (Homo sapiens, UniProt P05181); test: Direct CYP inhibition assay in pooled HLMs, CYP2E1 (chlorzoxazone); type: in vitro ADME; conditions: pooled HLMs 0.2 mg/mL; substrate chlorzoxazone 50 μM; 10 min; read-out: IC50 against CYP2E1
[7] = target: T3, CYP3A4 (Homo sapiens, UniProt P08684)
Protocol: To assess the effect of POH on the kinetics of the formation of 1′-hydroxymidazolam (1′-OH-MDZ) and 4-hydroxymidazolam (4-OH-MDZ), 5 μM MDZ was incubated with POH (0–100 μM) in hHOs for 24 h at 37 °C in a CO2 incubator. Samples were incubated in 24-well culture plates, with each well containing a total volume of 0.7 mL. At 2, 4, 6, and 24 h, 70 μL of medium was sampled, and reaction termination was achieved by adding an equal volume of ice-cold acetonitrile containing 100 nM carbamazepine as an internal standard. The supernatants were analyzed using LC-MS/MS after centrifugation at 10,000× g for 10 min at 4 °C. […] Data were normalized for protein concentrations measured using the Pierce™ BCA Protein Assay Kit (Thermo Fisher Scientific, Waltham, MA, USA) following the manufacturer’s instructions. The experiment was performed using four separate samples.

[8] = target: T3, CYP3A4; test: Effect of POH on the metabolism of other CYP3A4 substrates in pooled HLMs; type: in vitro ADME; conditions: (−)-POH 3.2–100 μM, substrates near Km
Protocol: as §1

[9] = target: CYP2C19 (Homo sapiens, UniProt P33261); test: Direct CYP inhibition assay in pooled HLMs, CYP2C19 (S-mephenytoin)
[10] = target: T1, CYP2C9; test: Direct CYP inhibition assay in pooled HLMs, CYP2C9 (tolbutamide)
[11] = target: T4, CYP2A6 (Homo sapiens, UniProt P11509); test: Metabolism-dependent inhibition assay (IC50 shift) in pooled HLMs, CYP2A6; conditions: substrate coumarin; for IC50: CYP2A6, pooled HLMs, 95% CI in parentheses
T4 sequence (P11509 1-494): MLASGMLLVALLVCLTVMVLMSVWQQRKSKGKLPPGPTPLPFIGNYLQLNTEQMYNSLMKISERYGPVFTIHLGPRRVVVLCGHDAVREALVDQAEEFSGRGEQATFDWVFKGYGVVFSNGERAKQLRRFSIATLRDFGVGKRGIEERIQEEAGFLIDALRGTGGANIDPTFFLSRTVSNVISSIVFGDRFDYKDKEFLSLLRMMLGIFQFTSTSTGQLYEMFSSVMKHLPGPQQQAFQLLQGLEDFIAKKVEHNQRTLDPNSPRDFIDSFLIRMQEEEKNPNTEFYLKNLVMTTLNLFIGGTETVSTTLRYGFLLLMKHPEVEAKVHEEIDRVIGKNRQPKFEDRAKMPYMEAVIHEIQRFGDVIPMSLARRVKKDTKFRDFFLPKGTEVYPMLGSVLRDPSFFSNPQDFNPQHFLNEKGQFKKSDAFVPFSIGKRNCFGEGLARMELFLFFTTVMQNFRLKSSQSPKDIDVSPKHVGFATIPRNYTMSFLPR
Protocol: The experiments for determining metabolism-dependent inhibition were conducted utilizing a non-dilution method. […] The pre-incubation was initiated by the addition of 1 mM NADPH and incubation for 30 min. Subsequently, final incubation was performed with the addition of a substrate (5 μM coumarin or 50 μM bupropion) in the presence of NADPH for 10 min; the total volume of the mixture was 200 μL. […] Mixtures were subjected to centrifugation at 3000× g for 20 min at 4 °C, and the supernatants were analyzed using LC-MS/MS. The experiment was performed using three separate samples.
The CYP-mediated activities in the presence of test substances were expressed as percentages of the corresponding control values.

T1 sequence (P11712 whole entry): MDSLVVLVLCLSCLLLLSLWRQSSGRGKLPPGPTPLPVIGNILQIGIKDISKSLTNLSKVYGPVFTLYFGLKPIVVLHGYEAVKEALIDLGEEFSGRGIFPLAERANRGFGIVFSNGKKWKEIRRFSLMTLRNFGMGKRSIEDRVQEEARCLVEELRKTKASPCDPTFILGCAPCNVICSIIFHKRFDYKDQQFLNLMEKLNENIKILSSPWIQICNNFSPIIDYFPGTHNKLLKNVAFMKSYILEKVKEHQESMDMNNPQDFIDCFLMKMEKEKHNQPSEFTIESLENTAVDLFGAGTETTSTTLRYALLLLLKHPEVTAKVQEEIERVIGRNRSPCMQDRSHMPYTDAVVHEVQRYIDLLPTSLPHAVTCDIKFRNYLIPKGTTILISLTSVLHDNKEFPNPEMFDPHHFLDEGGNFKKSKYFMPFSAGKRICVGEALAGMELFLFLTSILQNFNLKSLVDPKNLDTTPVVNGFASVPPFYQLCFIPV
T3 sequence (P08684 whole entry): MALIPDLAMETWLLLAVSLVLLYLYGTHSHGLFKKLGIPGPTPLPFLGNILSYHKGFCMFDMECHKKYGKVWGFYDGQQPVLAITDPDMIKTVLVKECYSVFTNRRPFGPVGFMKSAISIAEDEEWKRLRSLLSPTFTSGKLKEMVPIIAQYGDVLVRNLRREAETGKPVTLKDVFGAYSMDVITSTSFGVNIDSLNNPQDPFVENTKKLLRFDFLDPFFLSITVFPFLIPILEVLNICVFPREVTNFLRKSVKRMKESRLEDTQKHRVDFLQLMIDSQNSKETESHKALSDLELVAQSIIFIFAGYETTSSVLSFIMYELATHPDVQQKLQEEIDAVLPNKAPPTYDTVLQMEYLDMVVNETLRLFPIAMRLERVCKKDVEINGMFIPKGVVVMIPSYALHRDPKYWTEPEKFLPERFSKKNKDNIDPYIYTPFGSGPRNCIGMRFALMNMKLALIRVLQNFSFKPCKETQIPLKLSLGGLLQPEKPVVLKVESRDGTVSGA
Chain of CYP2E1 (P05181 whole entry): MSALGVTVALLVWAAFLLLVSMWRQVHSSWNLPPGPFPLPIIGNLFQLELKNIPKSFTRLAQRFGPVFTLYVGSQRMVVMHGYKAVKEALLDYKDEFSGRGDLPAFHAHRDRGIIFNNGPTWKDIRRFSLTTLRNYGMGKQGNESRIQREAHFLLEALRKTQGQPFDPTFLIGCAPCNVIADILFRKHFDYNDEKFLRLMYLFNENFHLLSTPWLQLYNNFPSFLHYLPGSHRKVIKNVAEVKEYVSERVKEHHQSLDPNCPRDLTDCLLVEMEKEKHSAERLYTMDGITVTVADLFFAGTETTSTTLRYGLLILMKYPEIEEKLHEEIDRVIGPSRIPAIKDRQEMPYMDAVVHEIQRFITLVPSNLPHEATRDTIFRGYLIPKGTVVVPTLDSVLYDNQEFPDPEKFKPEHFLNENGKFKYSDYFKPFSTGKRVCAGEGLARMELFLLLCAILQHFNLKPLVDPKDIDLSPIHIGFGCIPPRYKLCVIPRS
Chain of CYP2C19 (P33261 whole entry): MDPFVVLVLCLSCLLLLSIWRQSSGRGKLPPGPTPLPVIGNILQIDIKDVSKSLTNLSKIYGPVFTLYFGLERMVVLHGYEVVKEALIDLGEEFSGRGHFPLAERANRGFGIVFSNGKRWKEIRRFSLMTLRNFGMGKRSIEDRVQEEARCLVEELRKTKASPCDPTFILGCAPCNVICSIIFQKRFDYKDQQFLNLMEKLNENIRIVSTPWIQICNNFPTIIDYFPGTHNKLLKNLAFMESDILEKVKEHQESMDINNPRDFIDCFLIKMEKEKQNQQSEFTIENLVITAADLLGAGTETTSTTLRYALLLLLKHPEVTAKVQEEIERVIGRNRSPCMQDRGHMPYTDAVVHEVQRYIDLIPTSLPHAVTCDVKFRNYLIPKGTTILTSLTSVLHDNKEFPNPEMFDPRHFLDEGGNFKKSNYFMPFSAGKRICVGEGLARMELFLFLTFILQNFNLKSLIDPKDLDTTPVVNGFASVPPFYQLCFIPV

C=C(C)[C@@H]1CC=C(CO)CC1 [(−)-POH, (−)-perillyl alcohol]
IC50 ([1]; IC50 against formation of 1-hydroxy butyl FMS): 123 µM | IC50 ([1]; IC50 against formation of 4-hydroxy butyl FMS): 63 µM | IC50 at 10 min ([1]; human, pooled human liver microsomes, pH 7.4, pooled HLMs, read-out: IC50 against formation of 2- or 3-hydroxy butyl FMS): 62 µM | Ki [2]: 3.78 µM | Type of inhibition, CYP2B6 ([3]; best fit by AICc and Sy.x, Dixon plots): mixed inhibition model | Ki, CYP2B6, uncompetitive model (not selected) ([3]; pooled HLMs, bupropion, 95% CI in parentheses): 4.54 (3.62–5.56) μM | Formation of FMS S-oxide [4]: reduced | IC50 [5]: 6.99 µM | IC50 [6]: > 50 µM | Rate of 1′-OH-MDZ formation in hHOs ([7]; 2.5 μM): 1.86 (1.64–2.07) pmol/h/mg protein | Rate of 1′-OH-MDZ formation in hHOs ([7]; 10 μM): 2.04 (1.88–2.20) pmol/h/mg protein | Rate of 1′-OH-MDZ formation in hHOs ([7]; 25 μM): 2.34 (2.18–2.49) pmol/h/mg protein | Rate of 1′-OH-MDZ formation in hHOs ([7]; 50 μM): 3.21 (2.93–3.48) pmol/h/mg protein | Formation rate of 4-OH-MDZ in hHOs ([7]; 100 μM): 0.159 ± 0.016 pmol/h/mg protein | Increase of the rate of 1′-OH-MDZ formation compared with absence of (−)-POH ([7]; 100 μM): 2.05 fold | Effect on CYP3A4-mediated metabolism of atorvastatin, buspirone, donepezil, nifedipine, and tadalafil [8]: did not significantly affect | IC50 [9]: > 50 µM | IC50 [10]: > 50 µM | IC50 ([11]; IC50, pre-incubation with NADPH, 30 min pre-incubation with NADPH): 23.4 µM | IC50 ([11]; IC50, pre-incubation without NADPH, 30 min pre-incubation without NADPH): 24.3 µM | IC50 fold-shift, CYP2A6 ([11]; IC50 without NADPH/IC50 with NADPH): 1.04
